Data reported in patent publication US12371748B2, “Genetic markers for predicting responsiveness to therapy with HDL-raising or HDL mimicking agent” (Hoffmann-La Roche Inc., priority 2014, dated 2025).

What was measured:
CETP = target: T1, CETP (Homo sapiens, UniProt P11597); conditions: humans; cited from earlier work
T1 construct: host or cells: humans (in vivo; endogenous plasma CETP)
T1 sequence (P11597 18-493): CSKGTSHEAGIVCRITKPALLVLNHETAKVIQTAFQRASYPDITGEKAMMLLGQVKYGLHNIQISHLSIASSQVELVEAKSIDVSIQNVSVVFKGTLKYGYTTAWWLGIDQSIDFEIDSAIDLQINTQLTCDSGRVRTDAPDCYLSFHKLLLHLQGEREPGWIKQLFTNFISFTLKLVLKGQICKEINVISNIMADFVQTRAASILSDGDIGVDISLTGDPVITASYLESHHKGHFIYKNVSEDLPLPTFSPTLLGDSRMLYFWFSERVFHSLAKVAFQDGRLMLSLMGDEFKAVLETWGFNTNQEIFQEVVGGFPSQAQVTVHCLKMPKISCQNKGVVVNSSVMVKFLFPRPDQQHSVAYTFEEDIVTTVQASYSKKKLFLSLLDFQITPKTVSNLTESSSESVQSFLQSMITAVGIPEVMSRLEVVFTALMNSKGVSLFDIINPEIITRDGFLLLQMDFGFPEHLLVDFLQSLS

[1] = dal-OUTCOMES: change in plasma lipids by rs1967309 genotype; format: in vivo, human; conditions: for change in total cholesterol at 1 month: dalcetrapib arm
Method: All patients were following individualized programs to target LDL cholesterol levels of 100 mg per deciliter (2.6 mmol per liter) or lower by statin if tolerated and diet. No specific statin agent was specified, and patients were not excluded based on LDL cholesterol values. Patients with serum triglyceride levels of 400 mg per deciliter (4.5 mmol per liter) or higher were excluded. (Schwartz G G et al. N Engl J Med 2012; 367:2089-99) Eligible participants to the dal-Outcomes trial entered a single-blind placebo run-in period of approximately 4 to 6 weeks to allow for patients to stabilise and for completion of planned revascularisation procedures. At the end of the run-in period, eligible patients in stable condition were randomised in a 1:1 ratio to 600 mg of dalcetrapib or placebo on top of evidence-based medical care for acute coronary syndrome. Cardiovascular events were adjudicated by an independent clinical endpoint committee. For the pharmacogenomics study, 6338 patients were recruited from April 2008 through July 2010 at 461 sites in 14 countries and provided written informed consent to participate to the genetic study of the dal-OUTCOMES trial. DNA was extracted from whole blood. Following genomic data cleanup, samples from 5749 Caucasian patients were used for the discovery genome-wide association study (GWAS).
This effect was not observed in the placebo arm. […] During the dalcetrapib treatment period, GG carriers had overall slightly lower LDL-cholesterol levels (adjusted P=0.048; repeated measures analysis, FIG. 4).

## CCC(CC)CC1(C(=O)Nc2ccccc2SC(=O)C(C)C)CCCCC1 [dalcetrapib, thioisobutyric acid S-(2-{[1-(2-ethyl-butyl)-cyclohexanecarbonyl]-amino}-phenyl) ester]
CETP
  CETP activity: inhibitor of CETP activity
[1]; rs1967309 AA
  change in total cholesterol at 1 month: 13.8 ± 24.0 mg/dL
  change in LDL-cholesterol after 1 month of dalcetrapib treatment: +0.6±21.0 mg/dl
[1]; rs1967309 AG
  change in total cholesterol at 1 month: 12.9 ± 30.3 mg/dL
  change in LDL-cholesterol after 1 month of dalcetrapib treatment: -1.0 ± 20.0 mg/dL
[1]; rs1967309 GG
  change in total cholesterol at 1 month: 10.0 ± 23.3 mg/dL
  change in LDL-cholesterol after 1 month of dalcetrapib treatment: -2.0 ± 20.0 mg/dL
